The values that follow are results of earlier work, collected in US20120178114A1, “METHODS AND DEVICES FOR DETECTING THROMBIN GENERATION” (SUBC, INC., priority 2007, published 2012).

The target of this data set is thrombin (Homo sapiens, UniProt P00734). Conditions: BAEE as thrombin substrate.

As a reminder, the Km is the concentration of substrate that gives half-maximal velocity. As usually defined, the kcat is the number of substrate molecules converted per active site and unit of time at saturation. With `CCOC(=O)[C@H](CCCNC(=N)N)NC(=O)c1ccccc1` [BAEE, benzoylarginine ethyl ester], the Km is 100 µM and the kcat was 50 s⁻¹.
